Data taken from the supplement of paper PMC4862054.
Several values for one entry are separate records, joined by “and”; a condition that tells them apart may be missing. Equal entries are not always repeated.

What was measured:
Assay in all cases: normalised viability (% of control), CellTiter-Blue; higher = more viable cells (about 100 = DMSO control)
Details in all cases: incubation time: 72 h
DU-4475 [1] = test system: DU-4475
Protocol: (§1)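 DSRT, CellTiter-Blue viability, 72 h incubation. Signal is normalised to DMSO and benzethonium chloride controls. Value is the normalised response at dose 9.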

CAL-85-1 [2] = test system: CAL-85-1
Protocol: as §1

CAL-148 [3] = test system: CAL-148
Protocol: as §1

HDQ-P1 [4] = test system: HDQ-P1
Protocol: as §1

MDA-MB-453 [5] = test system: MDA-MB-453
Protocol: as §1

CAL-51 [6] = test system: CAL-51
Protocol: as §1

DU-4475 [7] = test system: DU-4475; remark: listed apart in the source
Protocol: (§2)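 DSRT, CellTiter-Blue viability, 72 h incubation. Signal is normalised to DMSO and benzethonium chloride controls. Value is the normalised response at dose 8.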

CAL-85-1 [8] = test system: CAL-85-1; remark: listed apart in the source
Protocol: as §2

CAL-148 [9] = test system: CAL-148; remark: listed apart in the source
Protocol: as §2

HDQ-P1 [10] = test system: HDQ-P1; remark: listed apart in the source
Protocol: as §2

MDA-MB-453 [11] = test system: MDA-MB-453; remark: listed apart in the source
Protocol: as §2

CAL-51 [12] = test system: CAL-51; remark: listed apart in the source
Protocol: as §2

| SMILES | normalised viability (DU-4475 [1]) | normalised viability (CAL-85-1 [2]) | normalised viability (CAL-148 [3]) | normalised viability (HDQ-P1 [4]) | normalised viability (MDA-MB-453 [5]) | normalised viability (CAL-51 [6]) | normalised viability (DU-4475 [7]) | normalised viability (CAL-85-1 [8]) | normalised viability (CAL-148 [9]) | normalised viability (HDQ-P1 [10]) | normalised viability (MDA-MB-453 [11]) | normalised viability (CAL-51 [12]) |
| --- | --- | --- | --- | --- | --- | --- | --- | --- | --- | --- | --- | --- |
| O=S(=O)(c1cccc2cnccc12)N1CCCNCC1 [Fasudil] (10000 nM) | 101% | 99.3% | 82.3% | 180% | 57.8% | 109% |  |  |  |  |  |  |
| O=C(NC[C@H](O)CO)c1ccncc1Nc1ccc(I)cc1F (10000 nM) | -0.44% | 39.9% | 70.5% | 46.3% | 37.1% | 65% |  |  |  |  |  |  |
| Cc1ccc(Nc2nccc(N(C)c3ccc4c(C)n(C)nc4c3)n2)cc1S(N)(=O)=O [Pazopanib] (3000 nM) |  |  |  |  |  |  | 110% | 96% | 67.7% | 77.9% | 42.5% | 87.6% |
| CCN(CC)CCNC(=O)c1c(C)[nH]c(/C=C2\C(=O)Nc3ccc(F)cc32)c1C [Sunitinib] (300 nM) |  |  |  |  |  |  | 102% and 94.5% | 107% and 105% | 93.2% and 108% | 97.1% and 115% | 101% and 83.8% | 113% and 96% |
| CC[C@@]1(O)C(=O)OCc2c1cc1n(c2=O)Cc2cc3c(CN(C)C)c(O)ccc3nc2-1 [Topotecan] (300 nM) |  |  |  |  |  |  | 47.5% | 66.9% | 31.4% | 87.8% | 69.3% | 66.2% |
| Nc1ccccc1NC(=O)c1ccc(CNc2nccc(-c3cccnc3)n2)cc1 [Mocetinostat] (3000 nM) |  |  |  |  |  |  | 5.41% | 23.6% | 37.3% | 71.6% | 20.6% | 51.7% |
| CO[C@@H](C(=O)N1Cc2[nH]nc(NC(=O)c3ccc(N4CCN(C)CC4)cc3)c2C1)c1ccccc1 [Danusertib] (3000 nM) |  |  |  |  |  |  | 23.1% | 40.5% | 53.5% | 27.8% | 34.2% | 25.9% |
| Cc1cccc(-c2nn3c(c2-c2ccnc4ccc(C(N)=O)cc24)CCC3)n1 (300 nM) |  |  |  |  |  |  | 102% | 108% | 110% | 125% | 115% | 103% |
| c1cc(CN2CCCNCCNCCCNCC2)ccc1CN1CCCNCCNCCCNCC1 [Plerixafor] (2500 nM) | 99.3% | 97% | 83.5% | 125% | 103% | 111% |  |  |  |  |  |  |
| Cc1cccc(-c2nn3c(c2-c2ccnc4ccc(C(N)=O)cc24)CCC3)n1 (1000 nM) | 124% | 101% | 79.7% | 133% | 104% | 103% |  |  |  |  |  |  |
| C[C@]12O[C@H](C[C@]1(O)CO)n1c3ccccc3c3c4c(c5c6ccccc6n2c5c31)CNC4=O [Lestaurtinib] (300 nM) |  |  |  |  |  |  | 26.7% | 65% | 75.9% | 92.4% | 50.2% | 76.5% |
| O=S(=O)(c1cccc2cnccc12)N1CCCNCC1 [Fasudil] (3000 nM) |  |  |  |  |  |  | 113% | 101% | 81.2% | 121% | 99.4% | 118% |
| O=C1c2c(O)ccc(O)c2C(=O)c2c(NCCNCCO)ccc(NCCNCCO)c21 [Mitoxantrone] (300 nM) |  |  |  |  |  |  | 9.52% | 59.1% | 12.7% | 52.5% | 66% | 28% |
| Nc1nc(=O)c2c([nH]1)NCC(CNc1ccc(C(=O)N[C@@H](CCC(=O)O)C(=O)O)cc1)N2C=O (mixture of isomers) [Folinic acid] (297 nM) |  |  |  |  |  |  | 98.8% | 100% | 95.2% | 122% | 106% | 92.8% |
| O=C(Nc1c[nH]nc1-c1nc2ccc(CN3CCOCC3)cc2[nH]1)NC1CC1 [AT9283] (10000 nM) | -1.62% | -0.09% | 1.55% | 7.44% | 11.2% | 4.48% |  |  |  |  |  |  |
| Nc1nc(=O)c2c([nH]1)NCC(CNc1ccc(C(=O)N[C@@H](CCC(=O)O)C(=O)O)cc1)N2C=O (mixture of isomers) [Folinic acid] (990 nM) | 115% | 98% | 105% | 86.9% | 103% | 94.1% |  |  |  |  |  |  |
| COc1cc(CCc2cc(NC(=O)c3ccc(N4CC(C)NC(C)C4)cc3)n[nH]2)cc(OC)c1 (configuration not stated) [AZD4547] (300 nM) |  |  |  |  |  |  | 97.8% | 95.5% | 105% | 117% | 56.1% | 96.4% |
| COc1nc(N)nc2c1ncn2[C@@H]1O[C@H](CO)[C@@H](O)[C@@H]1O [Nelarabine] (3000 nM) |  |  |  |  |  |  | 121% and 112% | 94.5% and 98% | 90.6% and 84.7% | 74.7% and 87.7% | 86.7% and 106% | 102% and 97.6% |
| O=C(NC[C@H](O)CO)c1ccncc1Nc1ccc(I)cc1F (3000 nM) |  |  |  |  |  |  | 0.63% | 48% | 66.8% | 57.4% | 57.3% | 78.9% |
| O=C(Nc1c[nH]nc1-c1nc2ccc(CN3CCOCC3)cc2[nH]1)NC1CC1 [AT9283] (3000 nM) |  |  |  |  |  |  | 0.96% | 16.8% | 67.2% | 25.9% | 26.9% | 25.5% |
| COc1ccc(-c2cc3c(C)nc(N)nc3n([C@H]3CC[C@H](OCCO)CC3)c2=O)cn1 (3000 nM) |  |  |  |  |  |  | 6.45% | 10.4% | 6.69% | 10.7% | 3.88% | 2.65% |
| CCC/C=C/C=C/C(=O)O[C@H]1/C(=C/C(=O)OC)C[C@H]2C[C@H]([C@@H](C)O)OC(=O)C[C@H](O)C[C@@H]3C[C@H](OC(C)=O)C(C)(C)[C@](O)(C[C@@H]4C/C(=C/C(=O)OC)C[C@H](/C=C/C(C)(C)[C@]1(O)O2)O4)O3 [Bryostatin 1] (30 nM) |  |  |  |  |  |  | 65% | 111% | 110% | 100% | 96.6% | 95.3% |
| O=C(CCBr)N1CCN(C(=O)CCBr)CC1 [Pipobroman] (3000 nM) |  |  |  |  |  |  | 106% | 102% | 104% | 100% | 108% | 124% |
| Nc1cccc2c1CN(C1CCC(=O)NC1=O)C2=O (configuration not stated) [Lenalidomide] (3000 nM) |  |  |  |  |  |  | 101% and 100% | 88.6% and 90.2% | 80.2% and 98.3% | 93.5% and 92.2% | 96.9% and 117% | 109% and 105% |
| c1cc(CN2CCCNCCNCCCNCC2)ccc1CN1CCCNCCNCCCNCC1 [Plerixafor] (750 nM) |  |  |  |  |  |  | 95.9% | 93% | 79.1% | 119% | 92.5% | 103% |
| Cn1cc(CNCC2CCN(c3ncc(C(=O)NO)cn3)CC2)c2ccccc21 (1000 nM) | 3.03% | 3.26% | 0.7% | 18.9% | 2.12% | 2.6% |  |  |  |  |  |  |
| CS(=O)(=O)N1CCN(Cc2cc3nc(-c4cccc5[nH]ncc45)nc(N4CCOCC4)c3s2)CC1 [GDC-0941] (10000 nM) | -0.76% | 13.3% | 0.59% | 12.8% | 5.58% | 2.35% |  |  |  |  |  |  |
